Values of other authors as cited in US20260053767A1, “Hepatoprotective Compositions And Methods” (Jemyll, Ltd., priority 2022, published 2026).

Settings: reported: adipose tissue inflammation, insulin resistance, non-alcoholic fatty liver disease; cited from earlier work

Structure (SMILES): CCCCCCCCCCCC(=O)O [lauric acid]
- effects on the liver and other tissues: significant adverse effects on the liver and other tissues
